{"source": "patent US7897588B2", "about": "“Agents and methods for enhancing bone formation” (The Regents of the University of California, priority 2003, dated 2011)", "key": {"lipoprotein lipase (LPL)": {"system": "lipoprotein lipase (LPL)", "assay": "Northern blot for lipoprotein lipase in troglitazone-treated M2 cells", "assay_type": "cell-based, mouse", "details": "10 μM Tro, 10 μM 20S, 10 days", "procedure": "RNA isolation and Northern blot analysis—Following treatment of cells under appropriate experimental conditions, total RNA was isolated using the RNA isolation kit from Stratagene (La Jolla, Calif., U.S.A.). Total RNA ([…]) was run on a 1% agarose/formaldehyde gel and transferred to Duralon-UV membranes (Strategene, Calif., U.S.A.) and cross-linked with UV light. The membranes were hybridized overnight at 60 degree C. with ^32P-labeled mouse osteocalcin cDNA probe, mouse lipoprotein lipase (LPL), mouse adipocyte protein 2 (aP2) PCR-generated probes, human 28S or 18S rRNA probes obtained from Geneka Biotechnology (Montreal, Quebec, Canada) and Maxim Biotech (San Francisco, Calif., U.S.A.), respectively. […] The extent of gene induction was determined by densitometry.\nTest 2: (A) M2 cells at confluence were treated in RPMI containing 10% FBS with control vehicle or 10 μM troglitazone (Tro) in the absence or presence of 10 μM 20S or 22S oxysterols. After 10 days, adipocytes were visualized by oil Red O staining and quantified by light microscopy, shown in (B). […] After 10 days, total RNA was isolated and analyzed for lipoprotein lipase (LPL), adipocyte P2 gene (aP2) or 18S rRNA expression by Northern blotting as described (Ref). […]"}, "ERK1 and ERK2": {"system": "ERK1 and ERK2", "assay": "Western blot for phosphorylated ERK in M2 cells", "assay_type": "cell-based, mouse", "details": "5 μM 20S, 1, 4 or 8 hours", "procedure": "Western blot analysis—After treatments, cells were lysed in lysis buffer, protein concentrations determined using the Bio-Rad protein assay (Hercules, Calif. U.S.A.), and SDS-PAGE performed as previously described. Probing for native and phosphorylated ERKs was performed as previously reported.\n(A) M2 cells at confluence were pretreated for four hours with RPMI containing 1% FBS, followed by treatment with control vehicle or 5 μM 20S oxysterol for 1, 4, or 8 hours. Next total cell extracts were prepared and analyzed for levels of native or phosphorylated ERK (pERK) using specific antibodies as previously described. Data from a representative of four experiments are shown, each treatment shown in duplicate samples. (B) M2 cells at confluence were pretreated for 2 hours with control vehicle (C) or 20 μM PD98059 (PD) in osteogenic medium as previously described. Next, a combination of 22R and 20S oxysterols (RS, 5 μM each) were added to appropriate wells as indicated. After 10 days of incubation, matrix mineralization was quantified by the ^45Ca incorporation assay as previously described. Data from a representative of three experiments are reported as the mean±SD of quadruplicate determinations, normalized to protein concentration (p<0.01 for RS vs. RS+PD). […] After 10 days, adipocytes were visualized by oil Red O staining and quantified by light microscopy as previously described. […]"}}}
{"smiles": "CC(C)CCC[C@](C)(O)[C@H]1CC[C@H]2[C@@H]3CC=C4C[C@@H](O)CC[C@]4(C)[C@H]3CC[C@@]21C", "note": "[20S, 20(S)-hydroxycholesterol]", "values": [{"measurement": "expression of lipoprotein lipase (LPL)", "setting": "lipoprotein lipase (LPL)", "result": "inhibition"}, {"measurement": "activation of ERK1 and ERK2", "setting": "ERK1 and ERK2", "result": "sustained activation"}]}
